From article PMC11627005 (Febs Letters, 2024)

How the values were obtained:
Format in all cases: biochemical
[1] = target: E. coli respiratory complex I (proton-pumping NADH:ubiquinone oxidoreductase, NuoA to NuoN) (Escherichia coli, UniProt P0AFC7+P0AFD4+P33599, P33599:D325E)
[2] = target: E. coli respiratory complex I (proton-pumping NADH:ubiquinone oxidoreductase, NuoA to NuoN) (Escherichia coli, UniProt P0AFC7+P0AFD4+P33599, P33599:D325A)
[3] = target: E. coli respiratory complex I (proton-pumping NADH:ubiquinone oxidoreductase, NuoA to NuoN) (Escherichia coli, UniProt P0AFC7+P0AFD4+P33599)
[4] = target: E. coli respiratory complex I (proton-pumping NADH:ubiquinone oxidoreductase, NuoA to NuoN) (Escherichia coli, UniProt P0AFC7+P0AFD4+P33599, P33599:D325Q)
[5] = target: E. coli respiratory complex I (proton-pumping NADH:ubiquinone oxidoreductase, NuoA to NuoN) (Escherichia coli, UniProt P0AFC7+P0AFD4+P33599, P33599:D325N)

C/C=C(\C)[C@H](O)[C@H](C)/C=C(C)/C=C/C/C(C)=C/Cc1nc(OC)c(OC)c(O)c1C [piericidin A]
IC50 [1]: 6.2 ± 0.5 µM | IC50 [2]: 9.3 ± 0.8 µM | IC50 [3]: 3.5 ± 0.2 µM | IC50 [4]: 16.9 ± 1.2 µM | IC50 [5]: 17.4 ± 0.6 µM
